Experimental data as given in US20230181543A1, “TREATMENT OF CARM1-OVEREXPRESSING AND/OR ARID1A MUTANT CANCERS WITH IRE-1/XBP-1 INHIBITORS” (The Wistar Institute of Anatomy and Biology, priority 2020, published 2023).
“Also recorded” adds a separate entry of the source.

How the values were obtained:
[1] = system: Arid1a flox/flox;(Gt)Rosa26Pik3ca*H1047R OCCC tumors; assay: Genetic OCCC mouse model (conditional inactivation of Arid1a, activation of Pik3ca)
ARID1A-mutant OCCC PDX = ARID1A-mutant OCCC PDX mice treated with B-I09; assay type: in vivo; conditions: ARID1A-mutant OCCC PDX mice (FIG. 45)
XBP-1 = conditions: B-I09 20 μM, 48 h (FIG. 3A)
Excerpt: (FIG. 3B) Dose response curve of B-I09 in wild-type and CARM1 knockout A1847 cells. (FIG. 3C) The expression of CARM1 in different HGSOC cell lines. (FIG. 3D) The IC50 of B-I09 in CARM1-low and high HGSOC cells.
Next, the inventors investigated whether the activated IRE-1-XBP-1 pathway is required for the survival of CARM1-high parental cells. […] To investigate whether the IRE-1-XBP-1 inhibition suppresses CARM1-high cells through inducing cell death, western blotting of apoptotic markers was performed. […] Therefore, to investigate whether lipid biosynthesis affects the selectivity of CARM1-high cells to inhibit the XBP-1 pathway, cells are treated with B-I09 to inhibit the XBP-1 pathway and rescued with control BSA or oleic acid (OA) (FIG. 4B), which is the upstream product for lipid biosynthesis (Yao et al., 2017).

[2] = system: hematological malignancies; conditions: cited from earlier work
A1847 cells = assay: Dose response of B-I09 in wild-type and CARM1 knockout A1847 cells; assay type: cell-based; conditions: wild-type vs CARM1 knockout A1847 cells (FIG. 3B)
[3] = system: A1847 cells with or without CARM1 knockout; assay: Western blotting of apoptotic markers (cleaved PARP, cleaved lamin A); assay type: cell-based; conditions: CARM1-high parental vs CARM1 knockout cells, B-I09 treatment
Excerpt: (§1) FIGS. 4A-C. […] (FIG. 4A) Western blotting of apoptotic markers in A1847 cells with or without CARM1 knockout treated with or without B-I09. (FIGS. 4B-C) Schematics (FIG. 4B) and dose response curves (FIG. 4C) of A1847 cells with or without CARM1 knockout treated with B-I09 and rescued with BSA or oleic acid (OA).
FIGS. 15A-F. IRE-1a-XBP-1 pathway is required for CARM1-expressing OvCa. (FIG. 15A) Colony formation assays of wildtype and CARM1 knockout A 1847 and PEO4 cells treated with IRE-1α inhibitor B-I09 or 4μ8c. […] (FIG. 15C) Western blotting of apoptotic markers cleaved PARP and cleaved Lamin A and loading control β-actin. […] (FIG. 15D) The CARM1 levels in a panel of High Grade Serous Ovarian Cancer (HGSOC) cell lines were examined by western blotting. CARM1 is highly expressed in PEO4, OSAHO and A1847 cell lines. (FIG. 15E) Survival curves of colony formation assays of the panel of HGSOC cell lines treated with B-I09. (FIG. 15F) Comparison of IC50 of CARM1-high and CARM1-low HGSOC cell lines under treatment of B-I09.

ARID1A mutant tumor = ARID1A mutant tumor formation under B-I09; assay type: in vivo; conditions: FIG. 39, 40
[4] = B-I09 treatment with CD8 depletion; assay type: in vivo; conditions: FIG. 44
CARM1-high tumors = assay: Orthotopic CARM1-high and CARM1-low PDX and A1847 xenograft mouse models; assay type: in vivo, mice; conditions: CARM1-high vs CARM1-low PDX; wild-type vs CARM1 knockout A1847 xenograft
Excerpt: (FIG. 18A) Hematoxylin and eosin (HE) staining, and immunohistochemical staining with anti-CARM1 antibody in CARM1-low and CARM1-high PDX. (FIG. 18B) Confirmation of CARM1 expression levels in CARM1-low and -high PDXs by western blotting. A1847 and OVCAR3 cell lysates were used as positive control for CARM1-high and CARM1-low expression, respectively. (FIGS. 18C-D) Schematic of experimental design for PDX mouse model was shown. Mice with indicated orthotopic CARM1-high and CARM1-low PDXs were randomized into two groups and treated with vehicle control or B-I09. Tumor weight was measured as a representation for tumor burden at the end of the treatment. (FIGS. 18E-F) Schematic of experimental design for orthotopic injection A1847 xenograft was shown. Mice with indicated orthotopic injection of wild-type or CARM1 knockout A1847 cells were randomized into two groups and treated with vehicle control or B-I09. Tumor weight was measured as a representation for tumor burden at the end of the treatment. (FIG. 18G) Kaplan-Meier survival curves for indicated xenograft groups. P value was calculated by log rank test. (FIG. 18H) Immunohistochemistry for apoptotic marker cleaved caspase 3 and proliferation marker Ki67, histological scores (H-score) were calculated for three separate fields from five tumors from five individual mice from each of the indicated groups.

UPK10 cells = assay: Orthotopic UPK10 xenograft, B-I09 with PD-1 immune therapy; assay type: in vivo, B6 Mice; conditions: B-I09 50 mg per kg, 5 weekdays per week i.p., with PD-1 10 mg per kg twice per week
Protocol: (FIG. 19A) Western blotting of CARM1 and loading control […]-actin in UPK10, […] and OVCAR3 cells. (FIG. 19B) Schematic of experimental design for orthotopic injection UPK10 xenograft was shown. B6 Mice with indicated orthotopic injection of UPK10 cells were randomized into four different treatment groups and treated with control vehicle, B-[…] (50 mg per kg, 5 weekdays per week by i.p.), PD-1 (10 mg per kg, twice per week) or a combination. (FIG. 19C) Tumor weight was measured as a representation for tumor burden at the end of the treatment. coefficient of drug interaction (CDI) was calculated. (FIG. 19D) Tumor infiltrated lymphocytes (TILs) was analyzed by flow cytometry. The percentage of CD4^+ T cell, CD8^+ T cell, B cell in […] cell and macrophage were shown.

EZH2 compared to EZH1 = EZH2 compared to EZH1 (Homo sapiens, UniProt Q15910); conditions: cited from earlier work
RMG1 cells = assay: Cisplatin and B-I09 combination in RMG1 wild-type and ARID1A knock-out cells; assay type: cell-based; conditions: RMG1 wild-type vs RMG1 ARID1A knock-out cells (FIG. 11); preliminary
Excerpt: FIG. 11. […] IC50 of cisplatin in RMG1 wild-type compared to RMG1 ARID1A knock-out cells in combination with B-I09. Data from 3 replicates.
Resistance to cisplatin has been associated with an increase in ER stress-mediated cellular survival mechanisms in ovarian cancer (Avril et al., 2017; Lei et al., 2015; Xu et al., 2015). […] The inventors hypothesize that ER stress inhibition is synergistic with platinum-based chemotherapy in ARID1A-mutated OCCCs. To test this hypothesis, the inventors will treat ARID1A wild-type, ARID1A CRISPR-Cas9 knock-out, and ARID/A-mutant or wild-type OCCC cells with increasing concentrations of cisplatin or carboplatin. ER stress response induction will be analyzed by western blot and RT-qPCR analyzing the expression of ER stress response proteins such as IRE-1, XBP-1, PERK, ATF6 and BiP. They expect that platinum-based therapy-induces enhanced ER stress responses in ARID1A mutant/knock-out cells. ER stress response induction may sensitize them to treatment combination of platinum-based therapies and B-I09. […] The inventors will expand this analysis into a panel of ARID1A wild-type (such as RMG1, OVCA429 and KK) and mutant (such as TOV21G, OVTOKO, and OVISE) OCCC cell lines to further establish the efficacy of combination treatment of platinum-based therapy and B-I09. […]

[5] = system: A1847 cells with or without CARM1 knockout; assay: Oleic acid rescue of B-I09-treated cells; assay type: cell-based; conditions: cells treated with B-I09, rescued with BSA or oleic acid (FIG. 4C); preliminary
Excerpt: as §1

Chain of EZH2 compared to EZH1 (Q15910 whole entry): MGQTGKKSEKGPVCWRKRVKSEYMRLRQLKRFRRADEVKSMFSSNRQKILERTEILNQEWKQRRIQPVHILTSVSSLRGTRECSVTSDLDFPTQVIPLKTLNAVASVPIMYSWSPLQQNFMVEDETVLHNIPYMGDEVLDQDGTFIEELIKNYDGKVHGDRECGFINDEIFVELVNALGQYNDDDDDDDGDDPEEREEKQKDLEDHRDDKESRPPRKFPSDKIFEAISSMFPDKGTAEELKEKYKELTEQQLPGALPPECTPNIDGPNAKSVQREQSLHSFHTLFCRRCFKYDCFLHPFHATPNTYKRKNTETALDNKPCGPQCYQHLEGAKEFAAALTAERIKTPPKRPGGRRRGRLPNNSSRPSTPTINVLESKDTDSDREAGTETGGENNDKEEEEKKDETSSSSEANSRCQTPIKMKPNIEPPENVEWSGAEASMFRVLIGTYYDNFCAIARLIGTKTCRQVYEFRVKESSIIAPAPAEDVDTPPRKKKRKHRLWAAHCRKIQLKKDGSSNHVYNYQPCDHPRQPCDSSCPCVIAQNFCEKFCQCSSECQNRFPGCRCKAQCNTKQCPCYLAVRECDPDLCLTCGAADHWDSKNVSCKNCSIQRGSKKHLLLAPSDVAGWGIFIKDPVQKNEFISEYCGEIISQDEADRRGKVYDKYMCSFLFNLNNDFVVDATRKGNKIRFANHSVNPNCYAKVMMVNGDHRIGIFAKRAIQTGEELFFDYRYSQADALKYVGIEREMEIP
Chain of EZH2 compared to EZH1 (O75530 whole entry partner): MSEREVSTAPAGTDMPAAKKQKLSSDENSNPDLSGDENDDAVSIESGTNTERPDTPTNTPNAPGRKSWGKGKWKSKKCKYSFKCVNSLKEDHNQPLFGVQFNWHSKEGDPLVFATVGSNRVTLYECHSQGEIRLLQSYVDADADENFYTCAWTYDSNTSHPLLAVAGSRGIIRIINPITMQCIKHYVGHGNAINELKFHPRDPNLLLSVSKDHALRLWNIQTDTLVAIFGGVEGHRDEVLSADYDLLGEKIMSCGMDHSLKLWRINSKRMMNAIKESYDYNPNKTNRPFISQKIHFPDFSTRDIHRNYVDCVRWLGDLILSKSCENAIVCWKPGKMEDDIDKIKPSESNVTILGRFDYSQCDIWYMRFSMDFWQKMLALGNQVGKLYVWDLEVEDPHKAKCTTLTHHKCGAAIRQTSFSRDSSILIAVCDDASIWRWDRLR
Chain of EZH2 compared to EZH1 (Q15022 whole entry partner): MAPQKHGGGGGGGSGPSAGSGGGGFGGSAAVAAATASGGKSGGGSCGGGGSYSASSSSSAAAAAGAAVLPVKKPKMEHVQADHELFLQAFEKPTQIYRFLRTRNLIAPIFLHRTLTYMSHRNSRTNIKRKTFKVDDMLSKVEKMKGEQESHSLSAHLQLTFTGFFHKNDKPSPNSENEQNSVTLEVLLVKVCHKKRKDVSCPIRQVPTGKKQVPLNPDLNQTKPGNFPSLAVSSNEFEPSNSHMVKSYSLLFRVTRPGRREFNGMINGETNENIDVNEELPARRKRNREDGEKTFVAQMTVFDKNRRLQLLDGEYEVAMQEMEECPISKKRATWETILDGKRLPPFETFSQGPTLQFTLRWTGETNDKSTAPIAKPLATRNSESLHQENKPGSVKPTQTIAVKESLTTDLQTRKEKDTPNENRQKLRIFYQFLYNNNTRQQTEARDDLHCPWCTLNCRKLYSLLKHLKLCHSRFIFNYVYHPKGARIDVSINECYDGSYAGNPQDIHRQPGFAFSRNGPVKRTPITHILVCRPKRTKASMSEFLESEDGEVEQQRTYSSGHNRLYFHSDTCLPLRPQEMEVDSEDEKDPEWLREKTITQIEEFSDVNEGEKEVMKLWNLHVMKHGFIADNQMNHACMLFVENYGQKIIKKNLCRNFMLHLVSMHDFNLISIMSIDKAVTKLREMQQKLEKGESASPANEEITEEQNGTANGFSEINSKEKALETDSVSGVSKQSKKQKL
Chain of EZH2 compared to EZH1 (Q09028 whole entry partner): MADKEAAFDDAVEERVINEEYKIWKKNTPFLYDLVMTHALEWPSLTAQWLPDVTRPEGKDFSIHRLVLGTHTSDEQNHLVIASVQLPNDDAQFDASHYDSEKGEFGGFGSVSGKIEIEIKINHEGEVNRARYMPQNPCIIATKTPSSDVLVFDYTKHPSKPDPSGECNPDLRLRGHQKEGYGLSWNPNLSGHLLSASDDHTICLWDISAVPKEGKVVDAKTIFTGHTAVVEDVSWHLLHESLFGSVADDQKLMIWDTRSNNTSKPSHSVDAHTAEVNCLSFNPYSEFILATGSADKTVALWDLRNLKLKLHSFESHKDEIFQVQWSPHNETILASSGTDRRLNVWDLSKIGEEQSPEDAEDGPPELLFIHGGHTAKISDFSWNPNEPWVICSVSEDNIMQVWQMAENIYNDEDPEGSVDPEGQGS

O=c1oc2c(C3OCCCO3)c(O)ccc2c2c1CNCC2 [B-I09]
survival (Kaplan-Meier) ([1]; 50 mg/Kg B-I09, tumor bearing mice): enhances mouse survival | tumor growth / progression (tumor weight) ([1]; 50 mg/Kg B-I09 for 3 weeks (5 days on/2 off)): reduces OCCC tumor growth in vivo; also recorded: suppresses tumor progression | tumor growth (ARID1A-mutant OCCC PDX): suppresses tumor growth | activation of XBP-1 / expression of active XBP-1s (XBP-1): inhibits the activation of XBP-1; also recorded: decreasing the expression of active XBP-1s | efficacy in hematological malignancies [2]: has been effective in treating hematological malignancies | sensitivity to B-I09, dose response curve (A1847 cells): wild-type cells are significantly more sensitive to B-I09 compared with knockout cells | induction of apoptosis (cleaved PARP, cleaved lamin A) [3]: specifically induces apoptosis in CARM1-high cells; also recorded: specifically induced apoptosis in wildtype CARM1-high cells; also recorded: selectively induced apoptosis in CARM1-high but not CARM1-low or CARM1 knockout HGSOC cells | ARID1A mutant tumor formation (ARID1A mutant tumor): selectively suppresses ARID1A mutant tumor formation | effect of CD8 depletion on B-I09 treatment [4]: CD8 depletion does not affect B-I09 treatment | sensitivity of tumors (tumor weight, survival) to B-I09 (CARM1-high tumors): CARM1-high tumors are sensitive to IRE-1α-XBP-1 inhibition | drug interaction on tumor weight (coefficient of drug interaction) (UPK10 cells): synergizes with PD-1 immune therapy

Cc1cc(C)c(CNC(=O)c2cc(-c3ccc(CN4CCOCC4)cc3)cc3c2cnn3C2CCCC2)c(=O)[nH]1 [EPZ005687]
selectivity for EZH2 over EZH1 (EZH2 compared to EZH1): 50 fold

N.N.[Cl][Pt][Cl] [cisplatin]
IC50 of cisplatin in combination with B-I09 (RMG1 cells): reduces the IC50 of cisplatin more effectively in RMG1 CRISPR/Cas9 KO cells compared to their wild-type parental control; also recorded: Loss of ARID1A promotes sensitivity to cisplatin and B-I09 combination

CCCCCCCC/C=C\CCCCCCCC(=O)O [oleic acid]
rescue from B-I09 inhibition of XBP-1 [5]: can rescue A1847 wild-type cells from the inhibition of XBP-1 but has no effect on CARM1 knockout cells
